Assay results from patent publication US20170296566A9, “METHODS AND COMPOSITIONS FOR TREATING AND/OR PREVENTING MUCOSITIS” (GLYCOMIMETICS, INC., priority 2013, published 2017).

The compounds below were run against T1, E-selectin (Homo sapiens, UniProt P16581) (assay: E-selectin competitive binding assay (inhibition of sLe^a binding to immobilized E-selectin/Ig chimera)). Settings: biotinylated sLe^a polyacrylamide with streptavidin/HRP, TMB, 450 nm, read-out: IC50 (μM), E-Selectin Antagonist Activity.
T1 construct: fused on or other part: Immunoglobulin (Ig) portion fused to E-selectin as a handle for immobilisation
T1 sequence (P16581 22-175 limits assumed): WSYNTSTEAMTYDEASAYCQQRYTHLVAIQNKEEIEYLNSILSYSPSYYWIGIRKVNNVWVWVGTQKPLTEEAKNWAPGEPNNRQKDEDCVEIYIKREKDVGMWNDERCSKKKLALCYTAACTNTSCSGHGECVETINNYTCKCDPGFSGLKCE
Description: The inhibition assay to screen for and characterize glycomimetic antagonists of E-selectin is a competitive binding assay, which allows the determination of IC50 values. E-selectin/Ig chimera was immobilized in 96 well microtiter plates by incubation at 37° C. for 2 hours. To reduce nonspecific binding, bovine serum albumin was added to each well and incubated at room temperature for 2 hours. The plate was washed and serial dilutions of the test compounds were added to the wells in the presence of conjugates of biotinylated, sLe^a polyacrylamide with streptavidin/horseradish peroxidase and incubated for 2 hours at room temperature.
To determine the amount of sLe^a bound to immobilized E-selectin after washing, the peroxidase substrate, 3,3′,5,5′ tetramethylbenzidine (TMB) was added. After 3 minutes, the enzyme reaction was stopped by the addition of H3PO4, and the absorbance of light at a wavelength of 450 nm was determined.
In addition to reporting the absolute IC50 value as measured above, relative IC50 values (rIC50) are determined by a ratio of the IC50 measured for the test compound to that of an internal control (reference) stated for each assay.

IC50, < 4 µM:
CCC1CC(C(=O)NCCNC(=O)CCOCCOCCOCCOCCOCCOCCOCCOCCOCCOCCOCCOC)CC(OC2OC(CO)C(O)C(OC(CC3CCCCC3)C(=O)N(C)C)C2NC(C)=O)C1OC1OC(C)C(O)C(O)C1O (centres unmarked) [Compound 45], CCC1CC(C(=O)OC)C[C@@H](O[C@@H]2O[C@@H](CO)[C@H](O)C(O[C@@H](CC3CCCCC3)C(=O)O)C2NC(C)=O)[C@@H]1OC1O[C@@H](C)[C@H](O)C(O)[C@@H]1O (some centres unmarked) [Compound 22], CCC1CC(C(=O)NCCNC(=O)Cc2cc(=O)oc3cc(O)ccc23)C[C@@H](O[C@@H]2OC(CO)[C@H](O)C(O[C@@H](CC3CCCCC3)C(=O)O)C2NC(C)=O)C1OC1O[C@@H](C)C(O)C(O)[C@@H]1O (some centres unmarked) [Compound 29], CCC1CC(C(=O)NCCNC(=O)c2nc(C)cs2)C[C@@H](O[C@@H]2OC(CO)[C@H](O)C(O[C@@H](CC3CCCCC3)C(=O)O)C2NC(C)=O)C1OC1O[C@@H](C)C(O)C(O)[C@@H]1O (some centres unmarked) [Compound 28], CCC1CC(C(=O)OC)C[C@@H](O[C@@H]2OC(CO)[C@H](O)C(O[C@@H](CC3CCCCC3)C(=O)O)C2NC(=O)C(F)(F)F)C1OC1O[C@@H](C)C(O)C(O)[C@@H]1O (some centres unmarked) [Compound 27]
